The results in this text go back to patent US9169224B2, “Piperazinyl and piperidinyl ureas as modulators of fatty acid amide hydrolase” (Janssen Pharmaceutica NV, priority 2004, dated 2015).

pIC50: −log10 of the molar value.

The experiment addresses FAAH (Homo sapiens (Human), UniProt O00519). As to the kind of experiment: Assay Method 1: FAAH assay, T84 cell homogenate, 3H-anandamide hydrolysis. The format is biochemical. To be noted: 3H-AEA tracer 200 nM, 1 h at rt. On the procedure: T84 frozen pellets (contents of 1-4×15 cm culture dishes) were homogenized in 300 mL of FAAH assay buffer (125 mM Tris, 1 mM EDTA, 0.2% glycerol, 0.02% Triton X-100, 0.4 mM Hepes, pH 9). The assay mixture was prepared from 50 μL of the cell homogenate, 10 μL of the test compound, and 40 μL of anandamide [1-3H-ethanolamine] (^3H-AEA; Perkin-Elmer, 10.3 Ci/mmol), which was added last, for a final tracer concentration of 200 nM. The reaction mixture was incubated at rt for 1 hour (h). During the incubation, 96-well Multiscreen filter plates (catalog number MAFCNOB50; Millipore, Bedford, Mass., USA) were loaded with 25 μL of activated charcoal (Multiscreen column loader, catalog number MACL09625, Millipore) and washed once with 100 μL of MeOH. Also during the incubation, 96-well DYNEX MicroLite plates (catalog number NL510410) were loaded with 100 μL of MicroScint40 (catalog number 6013641, Packard Bioscience, Meriden, Conn., USA). After the 1 h incubation, 60 μL of the reaction mixture were transferred to the charcoal plates, which were then assembled on top of the DYNEX plates using Centrifuge Alignment Frames (catalog number MACF09604, Millipore). The unbound, labeled ethanolamine was centrifuged through to the bottom plate (5 min at 2000 rpm), which was preloaded with the scintillant, as described above. The plates were sealed and left at rt for 1 h before counting on a Hewlett Packard TopCount.

Chain of FAAH (O00519 whole entry): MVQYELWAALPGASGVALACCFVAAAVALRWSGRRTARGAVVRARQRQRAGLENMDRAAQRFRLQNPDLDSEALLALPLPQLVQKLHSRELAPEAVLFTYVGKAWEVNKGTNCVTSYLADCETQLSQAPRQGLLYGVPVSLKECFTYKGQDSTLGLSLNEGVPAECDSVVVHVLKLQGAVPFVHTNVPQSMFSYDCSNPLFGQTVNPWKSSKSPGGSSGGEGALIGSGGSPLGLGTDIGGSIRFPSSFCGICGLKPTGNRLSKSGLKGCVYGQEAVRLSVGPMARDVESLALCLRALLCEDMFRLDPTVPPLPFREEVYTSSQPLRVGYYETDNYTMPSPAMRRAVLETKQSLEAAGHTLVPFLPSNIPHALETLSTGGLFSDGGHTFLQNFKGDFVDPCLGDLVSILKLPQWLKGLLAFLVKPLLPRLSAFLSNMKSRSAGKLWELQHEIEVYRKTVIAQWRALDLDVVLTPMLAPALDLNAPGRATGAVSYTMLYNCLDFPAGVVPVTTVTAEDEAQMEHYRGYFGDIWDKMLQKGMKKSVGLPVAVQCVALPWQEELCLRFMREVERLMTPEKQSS

On to `O=C(Nc1ccccc1)N1CCN(Cc2cccc(Br)n2)CC1` [Example 71, 4-(6-Bromo-pyridin-2-ylmethyl)-piperazine-1-carboxylic acid phenylamide], for which the pIC50 – broadly, the negative decadic logarithm of the IC50, by convention in mol/L – is 5.22.

On to `O=C(Nc1ccccc1)N1CCN(Cc2cccc(S(=O)(=O)c3ccc(Cl)cc3)c2)CC1` [Example 72, 4-[3-(4-Chloro-benzenesulfonyl)-benzyl]-piperazine-1-carboxylic acid phenylamide], for which the pIC50 was 6.96.

`O=C(Nc1ccccc1)N1CCN(Cc2ccc3cc[nH]c3c2)CC1` [Example 73, 4-(1H-Indol-6-ylmethyl)-piperazine-1-carboxylic acid phenylamide] had a pIC50 of 7.54. Compared with the last compound, the pIC50 is 0.58 log units higher.

In the case of `O=C(Nc1ccccc1)N1CCN(Cc2ccc(Oc3ccccc3)cc2)CC1` [Example 74, 4-(4-Phenoxy-benzyl)-piperazine-1-carboxylic acid phenylamide], the pIC50 is 5.70. Compared with the last compound, the pIC50 is 1.84 log units lower.

For `Cc1cccc2cc(CN3CCN(C(=O)Nc4ccccc4)CC3)c(Cl)nc12` [Example 75, 4-(2-Chloro-8-methyl-quinolin-3-ylmethyl)-piperazine-1-carboxylic acid phenylamide], the pIC50 was 7.62.

For the compound `Cn1ccc2ccc(CN3CCN(C(=O)Nc4ccccc4)CC3)cc21` [Example 76, 4-(1-Methyl-1H-indol-6-ylmethyl)-piperazine-1-carboxylic acid phenylamide], the negative-log IC50 (pIC50) is 6.46.

In turn, `O=C(Nc1ccccc1)N1CCN(Cc2ccc(OCc3ccccc3)cc2)CC1` [Example 77, 4-(4-Benzyloxy-benzyl)-piperazine-1-carboxylic acid phenylamide] had a pIC50 of 7.49.

For `O=C(Nc1ccccc1)N1CCN(Cc2cccc(Oc3cc(Cl)cc(Cl)c3)c2)CC1` [Example 78, 4-[3-(3,5-Dichloro-phenoxy)-benzyl]-piperazine-1-carboxylic acid phenylamide], the pIC50 is 5.30.

As for `O=C(Nc1ccccc1)N1CCN(Cc2ccc3c(c2)Cc2ccccc2-3)CC1` [Example 79, 4-(9H-Fluoren-2-ylmethyl)-piperazine-1-carboxylic acid phenylamide], the pIC50 was 5.10.

`CCn1c2ccccc2c2cc(CN3CCN(C(=O)Nc4ccccc4)CC3)ccc21` [Example 80, 4-(9-Ethyl-9H-carbazol-3-ylmethyl)-piperazine-1-carboxylic acid phenylamide] gave a pIC50 of 6.48.

Compound `O=C(Nc1ccccc1)N1CCN(Cc2ccc(/C=C/c3ccccc3)cc2)CC1` [Example 81, 4-(4-Styryl-benzyl)-piperazine-1-carboxylic acid phenylamide] gave a pIC50 of 5.22. This pIC50 is 1.26 log units lower than that of the compound before.

With `O=C(Nc1ccccc1)N1CCN(Cc2ccc(Cl)c(C(F)(F)F)c2)CC1` [Example 82, 4-(4-Chloro-3-trifluoromethyl-benzyl)-piperazine-1-carboxylic acid phenylamide], the pIC50 was 7.10.

`Cc1cc(CN2CCN(C(=O)Nc3ccccc3)CC2)c(C)n1-c1cccc(C(F)(F)F)c1` [Example 83, 4-[2,5-Dimethyl-1-(3-trifluoromethyl-phenyl)-1H-pyrrol-3-ylmethyl]-piperazine-1-carboxylic acid phenylamide] had a pIC50 of 6.32.

The compound `O=C(Nc1ccccc1)N1CCN(Cc2ccccc2Br)CC1` [Example 84, 4-(2-Bromo-benzyl)-piperazine-1-carboxylic acid phenylamide] had a pIC50 of 5.60. This pIC50 is 0.72 log units lower than that of the compound before.

`O=C(Nc1cccc(F)c1)N1CCN(Cc2ccc(Br)c(Br)c2)CC1` [Example 85, 4-(3,4-Dibromo-benzyl)-piperazine-1-carboxylic acid (3-fluoro-phenyl)-amide] had a pIC50 of 7.72.

`O=C(Nc1ccc(F)cc1)N1CCN(Cc2ccc(Br)c(Br)c2)CC1` [Example 86, 4-(3,4-Dibromo-benzyl)-piperazine-1-carboxylic acid (4-fluoro-phenyl)-amide]: the negative logarithm of the IC50 (pIC50) is 7.68.

`COc1cccc(NC(=O)N2CCN(Cc3ccc(Br)c(Br)c3)CC2)c1` [Example 87, 4-(3,4-Dibromo-benzyl)-piperazine-1-carboxylic acid (3-methoxy-phenyl)-amide] showed a pIC50 of 7.32. This pIC50 lies 0.36 log units lower than the previous one.

`Cc1cccc(NC(=O)N2CCN(Cc3ccc(Br)c(Br)c3)CC2)c1` [Example 88, 4-(3,4-Dibromo-benzyl)-piperazine-1-carboxylic acid m-tolylamide] gave a pIC50 of 7.00.

Regarding `O=C(Nc1ccccc1F)N1CCN(Cc2ccc(Br)c(Br)c2)CC1` [Example 89, 4-(3,4-Dibromo-benzyl)-piperazine-1-carboxylic acid (2-fluoro-phenyl)-amide], the pIC50 is 7.66.

`COc1ccc(NC(=O)N2CCN(Cc3ccc(Br)c(Br)c3)CC2)cc1` [Example 90, 4-(3,4-Dibromo-benzyl)-piperazine-1-carboxylic acid (4-methoxy-phenyl)-amide]: the pIC50 is 7.12. This pIC50 is 0.54 log units lower than that of the compound before.

`COc1ccccc1NC(=O)N1CCN(Cc2ccc(Br)c(Br)c2)CC1` [Example 91, 4-(3,4-Dibromo-benzyl)-piperazine-1-carboxylic acid (2-methoxy-phenyl)-amide] gave a pIC50 of 6.89. This pIC50 lies 0.23 log units lower than the previous one.

Turning to `O=C(Nc1cccc(Cl)c1)N1CCN(Cc2ccc(Br)c(Br)c2)CC1` [Example 92, 4-(3,4-Dibromo-benzyl)-piperazine-1-carboxylic acid (3-chloro-phenyl)-amide], the pIC50 is 6.62.

The compound `O=C(Nc1ccccc1Cl)N1CCN(Cc2ccc(Br)c(Br)c2)CC1` [Example 93, 4-(3,4-Dibromo-benzyl)-piperazine-1-carboxylic acid (2-chloro-phenyl)-amide] showed a pIC50 of 6.34.

The compound `Cc1ccc(NC(=O)N2CCN(Cc3ccc(Br)c(Br)c3)CC2)cc1` [Example 94, 4-(3,4-Dibromo-benzyl)-piperazine-1-carboxylic acid p-tolylamide] had a pIC50 of 6.33.

Compound `O=C(Nc1ccc(Cl)cc1)N1CCN(Cc2ccc(Br)c(Br)c2)CC1` [Example 95, 4-(3,4-Dibromo-benzyl)-piperazine-1-carboxylic acid (4-chloro-phenyl)-amide] showed a pIC50 of 6.30. This pIC50 and that of the compound before are within 0.2 log units of each other.

For the compound `Cc1ccccc1NC(=O)N1CCN(Cc2ccc(Br)c(Br)c2)CC1` [Example 96, 4-(3,4-Dibromo-benzyl)-piperazine-1-carboxylic acid o-tolylamide], the pIC50 was below 5.00.

As to `O=C(Nc1cccc(F)c1)N1CCN(Cc2cnc3ccccc3c2)CC1` [Example 97, 4-Quinolin-3-ylmethyl-piperazine-1-carboxylic acid (3-fluoro-phenyl)-amide], the pIC50 was 6.92.

In the case of `O=C(Nc1ccccc1Cl)N1CCN(Cc2cnc3ccccc3c2)CC1` [Example 99, 4-Quinolin-3-ylmethyl-piperazine-1-carboxylic acid (2-chloro-phenyl)-amide], the pIC50 is 5.80. Against the preceding compound, the pIC50 is 1.12 log units lower.

With `O=C(Nc1cccc(Cl)c1)N1CCN(Cc2cnc3ccccc3c2)CC1` [Example 100, 4-Quinolin-3-ylmethyl-piperazine-1-carboxylic acid (3-chloro-phenyl)-amide], the negative logarithm of the IC50 (pIC50) was 6.70. This pIC50 is 0.90 log units higher than that of the compound before.

Consider `O=C(Nc1ccc(Cl)cc1)N1CCN(Cc2cnc3ccccc3c2)CC1` [Example 101, 4-Quinolin-3-ylmethyl-piperazine-1-carboxylic acid (4-chloro-phenyl)-amide], for which the pIC50 is 6.44.

Regarding `COc1ccccc1NC(=O)N1CCN(Cc2cnc3ccccc3c2)CC1` [Example 102, 4-Quinolin-3-ylmethyl-piperazine-1-carboxylic acid (2-methoxy-phenyl)-amide], the pIC50 was 6.27. The pIC50 values of the last two compounds are within 0.2 log units of each other.

Regarding `Cc1ccccc1NC(=O)N1CCN(Cc2cnc3ccccc3c2)CC1` [Example 103, 4-Quinolin-3-ylmethyl-piperazine-1-carboxylic acid o-tolylamide], the negative logarithm of the IC50 (pIC50) was 5.22.

`Cc1ccc(NC(=O)N2CCN(Cc3cnc4ccccc4c3)CC2)cc1` [Example 104, 4-Quinolin-3-ylmethyl-piperazine-1-carboxylic acid p-tolylamide] showed a negative-log IC50 (pIC50) of 6.16.

As for `COc1ccc(NC(=O)N2CCN(Cc3cnc4ccccc4c3)CC2)cc1` [Example 108, 4-Quinolin-3-ylmethyl-piperazine-1-carboxylic acid (4-methoxy-phenyl)-amide], the pIC50 was 6.57.

The compound `Cc1cccc(NC(=O)N2CCN(Cc3cnc4ccccc4c3)CC2)c1` [Example 109, 4-Quinolin-3-ylmethyl-piperazine-1-carboxylic acid m-tolylamide] gave a pIC50 of 6.70.

In the case of `COc1cccc(NC(=O)N2CCN(Cc3cnc4ccccc4c3)CC2)c1` [Example 110, 4-Quinolin-3-ylmethyl-piperazine-1-carboxylic acid (3-methoxy-phenyl)-amide], the pIC50 is 6.70.

In turn, `Cc1ccc(NC(=O)N2CCC(Cc3ccccc3)CC2)cc1` [Example 113, 4-Benzyl-piperidine-1-carboxylic acid p-tolylamide] had a pIC50 of 5.10. Against the preceding compound, the pIC50 is 1.60 log units lower.

Compound `Cc1cccc(NC(=O)N2CCC(Cc3ccccc3)CC2)c1` [Example 114, 4-Benzyl-piperidine-1-carboxylic acid m-tolylamide] had a pIC50 of 5.64.

As to `O=C(Nc1ccccc1Cl)N1CCC(Cc2ccccc2)CC1` [Example 115, 4-Benzyl-piperidine-1-carboxylic acid (2-chloro-phenyl)-amide], the pIC50 is 5.40.
